The target of this assay is T1, Human VPS34 (Homo sapiens, UniProt Q8NEB9).
T1 construct: GST (N); host or cells: SF9 insect cells (baculovirus)
In words: Human VPS34 Enzyme Assay (Adapta TR-FRET). Type of assay: biochemical. To be noted: compound at 1.111 μM; read-out: Average VPS34 % INH @ 1.111 μM. How it is done:
VPS34 (accession number GB:BC033004) was cloned into pDEST20-Thombin as N-terminal GST tagged fusion proteins using the Gateway system (Invitrogen, catalog#11804-013). The sequences were verified before recombinant protein expression using the Baculovirus Expression System with Gateway® Technology.
For expression VPS34 was infected at 1MOI in SF9 cells and harvested 72 hours post infection.
For purification, VPS34 is purified by Glutathione Sepharose 4 Fast Flow (GE Healthcare #17-5132-03) followed by HiTrap Q (GE Healthcare #17-1153-01).
Human VPS34 Enzyme Assay Method
100 nL compounds in DMSO are added to wells of a 384 well microtitre plate (Greiner 780076). At room temperature: 5 ul VPS34 reaction buffer (Invitrogen Assay Buffer Q (diluted 1 in 5 with nanopure water) plus 2 mM DTT and 2 mM MnCl2) containing ATP (20 uM, Promega) and 200 uM PI-PS substrate (Invitrogen PV5122) is added followed immediately by 5 ul VPS34 reaction buffer (as above) containing VPS34 (5 nM, Millennium Protein Sciences Group) and the mixture is incubated with shaking at room temperature for 1 hour. Then 5 ul VPS34 stop-detect mix (as per Invitrogen Adapta Assay kit (PV5009) instructions (contains kinase quench buffer, TR-FRET buffer, Adapta Eu anti-ADP antibody and Alexa Fluor 647 ADP tracer)) is added to quench the reaction. The plates are then incubated for 30 minutes at room temperature with shaking and then read on a BMG PheraStar Plus reader.
3) VPS34 is assayed using Adapta™ Universal Kinase Assay Kit (Invitrogen).
For orientation: Time-resolved FRET reads energy transfer from a long-lived donor to a nearby acceptor.

T1 sequence (Q8NEB9 whole entry): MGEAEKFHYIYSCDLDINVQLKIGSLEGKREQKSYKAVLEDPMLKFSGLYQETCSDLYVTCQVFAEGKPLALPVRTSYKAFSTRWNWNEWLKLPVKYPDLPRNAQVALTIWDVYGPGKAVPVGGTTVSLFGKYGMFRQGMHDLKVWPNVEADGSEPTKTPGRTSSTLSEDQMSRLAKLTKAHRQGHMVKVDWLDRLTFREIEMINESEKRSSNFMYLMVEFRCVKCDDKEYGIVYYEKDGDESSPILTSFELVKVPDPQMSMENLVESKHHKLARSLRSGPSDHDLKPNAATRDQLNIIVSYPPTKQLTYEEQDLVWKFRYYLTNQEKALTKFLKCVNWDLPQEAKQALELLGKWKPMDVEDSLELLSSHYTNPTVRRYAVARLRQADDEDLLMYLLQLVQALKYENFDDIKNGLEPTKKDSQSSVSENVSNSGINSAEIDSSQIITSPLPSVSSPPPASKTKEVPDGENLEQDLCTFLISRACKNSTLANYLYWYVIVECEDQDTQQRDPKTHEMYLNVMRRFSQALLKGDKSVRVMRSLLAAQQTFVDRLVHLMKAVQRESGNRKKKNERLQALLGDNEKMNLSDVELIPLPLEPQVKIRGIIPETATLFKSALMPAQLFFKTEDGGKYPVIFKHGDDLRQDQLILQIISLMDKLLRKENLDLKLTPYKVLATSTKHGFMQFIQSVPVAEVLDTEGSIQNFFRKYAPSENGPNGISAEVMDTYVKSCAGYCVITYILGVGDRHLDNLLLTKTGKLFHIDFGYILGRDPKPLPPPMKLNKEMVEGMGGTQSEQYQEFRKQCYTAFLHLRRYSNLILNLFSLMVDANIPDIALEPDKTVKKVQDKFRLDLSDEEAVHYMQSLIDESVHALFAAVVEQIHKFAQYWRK

With `CC(=O)Nc1cc(-c2cc(-c3nnc[nH]3)c(-c3cc(CN(C)C)ccc3Cl)o2)c(C)cn1` [Compound I-7, N-{4-[5-{2-chloro-5-[(dimethylamino)methyl]phenyl}-4-(4H-1,2,4-triazol-3-yl)-2-furyl]-5-methylpyridin-2-yl}acetamide], the inhibition at 1.111 µM was determined as 147%.

`CC(=O)Nc1cc(-c2nc(-c3cc(CN4CCCC4)ccc3Cl)c(C(=O)O)o2)c(C)cn1` [Compound I-51, 2-(2-acetamido-5-methylpyridin-4-yl)-4-[2-chloro-5-(pyrrolidin-1-ylmethyl)phenyl]-1,3-oxazole-5-carboxylic acid]: the inhibition at 1.111 µM was determined as 131%. The same measure for `CC(=O)Nc1cc(-c2cc(C(=O)NCCOCCO)c(-c3ccccc3Cl)o2)c(C)cn1` [Compound I-34, 5-(2-acetamido-5-methylpyridin-4-yl)-2-(2-chlorophenyl)-N-[2-(2-hydroxyethoxy)ethyl]-3-furamide]: 128%. The same measure for `CC(=O)Nc1cc(-c2cc(-c3nnc[nH]3)c(-c3ccccc3Cl)o2)c(C)cn1` [Compound I-23, N-{4-[5-(2-chlorophenyl)-4-(4H-1,2,4-triazol-3-yl)-2-furyl]-5-methylpyridin-2-yl}acetamide]: 139%; for `CC(=O)Nc1cc(-c2nc(N3CCCS3(=O)=O)c(-c3nnc[nH]3)o2)c(C)cn1` [Compound I-50, N-{4-[4-(1,1-dioxidoisothiazolidin-2-yl)-5-(4H-1,2,4-triazol-3-yl)-1,3-oxazol-2-yl]-5-methylpyridin-2-yl}acetamide]: 115%; for `CC(=O)Nc1cc(-c2cc(C(=O)NC3CCC3)c(-c3ccccc3Cl)o2)c(C)cn1` [Compound I-14, 5-(2-acetamido-5-methylpyridin-4-yl)-2-(2-chlorophenyl)-N-cyclobutyl-3-furamide]: 88%.

On to `CC(=O)Nc1cc(-c2cc(-c3nnc[nH]3)c(N3CCCC(N(C)C)C3)o2)c(C)cn1` (stereo not drawn) [Compound I-26, N-(4-{5-[3-(dimethylamino)piperidin-1-yl]-4-(4H-1,2,4-triazol-3-yl)-2-furyl}-5-methylpyridin-2-yl)acetamide], for which the inhibition at 1.111 µM came to 129%.

For the molecule `CC(=O)Nc1cc(-c2cc(C(=O)NC[C@@H](C)O)c(-c3ccccc3Cl)o2)c(C)cn1` (stereo in doubt) [Compound I-66, 5-(2-acetamido-5-methylpyridin-4-yl)-2-(2-chlorophenyl)-N-(2-hydroxypropyl)-3-furamide], the inhibition at 1.111 µM came to 131%. To `CC(=O)Nc1cc(-c2cc(C(=O)O)c(-c3ccccc3Cl)o2)c(C)cn1` [Compound I-56, 5-(2-acetamido-5-methylpyridin-4-yl)-2-(2-chlorophenyl)-3-furoic acid] belongs 139%. As for `CC(=O)Nc1cc(-c2nc(-c3ccccc3Cl)c(-c3ccccn3)o2)c(C)cn1` [Compound I-78, N-{4-[4-(2-chlorophenyl)-5-(pyridin-2-yl)-1,3-oxazol-2-yl]-5-methylpyridin-2-yl}acetamide], the inhibition at 1.111 µM stood at 43%. To `CC(C)CC(=O)Nc1cc(-c2nc(-c3nnc[nH]3)c(-c3ccccc3Cl)o2)ccn1` [Compound I-65, N-{4-[5-(2-chlorophenyl)-4-(4H-1,2,4-triazol-3-yl)-1,3-oxazol-2-yl]pyridin-2-yl}-3-methylbutanamide] belongs 21%; to `CON(C)C(=O)c1cc(-c2cc(NC(C)=O)ncc2C)oc1-c1ccccc1Cl` [Compound I-46, 5-(2-acetamido-5-methylpyridin-4-yl)-2-(2-chlorophenyl)-N-methoxy-N-methyl-3-furamide], 89%; to `CC(=O)Nc1cc(-c2cc(C(=O)Nc3nccs3)c(-c3ccccc3Cl)o2)c(C)cn1` [Compound I-15, 5-(2-acetamido-5-methylpyridin-4-yl)-2-(2-chlorophenyl)-N-(1,3-thiazol-2-yl)-3-furamide], 103%. The same measure for `CC(=O)Nc1cc(-c2cc(C(N)=O)c(-c3ccccc3Cl)o2)ccn1` [Compound I-1, 5-[2-(acetylamino)pyridin-4-yl]-2-(2-chlorophenyl)-3-furamide]: 120%; for `CC(=O)Nc1cc(-c2cc(C(=O)Nc3ccccc3)c(-c3ccccc3Cl)o2)c(C)cn1` [Compound I-19, 5-(2-acetamido-5-methylpyridin-4-yl)-2-(2-chlorophenyl)-N-phenyl-3-furamide]: 48%; for `CCNC(=O)c1cc(-c2cc(NC(C)=O)ncc2C)oc1-c1ccccc1Cl` [Compound I-81, 5-(2-acetamido-5-methylpyridin-4-yl)-2-(2-chlorophenyl)-N-ethyl-3-furamide]: 112%.

In the case of `CC(=O)Nc1cc(-c2nc(-c3cc(CN(C)C)ccc3Cl)c(-c3nnc[nH]3)o2)c(C)cn1` [Compound I-40, N-{4-[4-{2-chloro-5-[(dimethylamino)methyl]phenyl}-5-(4H-1,2,4-triazol-3-yl)-1,3-oxazol-2-yl]-5-methylpyridin-2-yl}acetamide], the inhibition at 1.111 µM was 115%.

On to `CC(=O)Nc1cc(-c2nc(C(=O)NCc3cccnc3)c(-c3ccccc3Cl)o2)c(C)cn1` [Compound I-47, 2-(2-acetamido-5-methylpyridin-4-yl)-5-(2-chlorophenyl)-N-(pyridin-3-ylmethyl)-1,3-oxazole-4-carboxamide], for which the inhibition at 1.111 µM is 31%. As for `CC(=O)Nc1cc(-c2cc(C(=O)N(C)C)c(-c3ccccc3Cl)o2)c(C)cn1` [Compound I-61, 5-(2-acetamido-5-methylpyridin-4-yl)-2-(2-chlorophenyl)-N,N-dimethyl-3-furamide], the inhibition at 1.111 µM is 96%. To `CC(=O)Nc1cc(-c2nc(C(=O)NCc3ccccn3)c(-c3ccccc3Cl)o2)c(C)cn1` [Compound I-20, 2-(2-acetamido-5-methylpyridin-4-yl)-5-(2-chlorophenyl)-N-(pyridin-2-ylmethyl)-1,3-oxazole-4-carboxamide] belongs 37%; to `Cc1cnc(NC(=O)C2CC2)cc1-c1nc(-c2nnc[nH]2)c(-c2ccccc2Cl)o1` [Compound I-77, N-{4-[5-(2-chlorophenyl)-4-(4H-1,2,4-triazol-3-yl)-1,3-oxazol-2-yl]-5-methylpyridin-2-yl}cyclopropanecarboxamide], 120%; to `CCC(=O)Nc1cc(-c2nc(-c3nnc[nH]3)c(-c3ccccc3Cl)o2)ccn1` [Compound I-75, N-{4-[5-(2-chlorophenyl)-4-(4H-1,2,4-triazol-3-yl)-1,3-oxazol-2-yl]pyridin-2-yl}propanamide], 114%.

Regarding `COC(=O)Nc1cc(-c2nc(-c3nnc[nH]3)c(-c3ccccc3Cl)o2)c(C)cn1` [Compound I-35, methyl {4-[5-(2-chlorophenyl)-4-(4H-1,2,4-triazol-3-yl)-1,3-oxazol-2-yl]-5-methylpyridin-2-yl}carbamate], the inhibition at 1.111 µM turned out to be 117%. The same measure for `CC(=O)Nc1cc(-c2nc(C(=O)O)c(-c3ccccc3Cl)o2)c(C)cn1` [Compound I-6, 2-[2-(acetylamino)-5-methylpyridin-4-yl]-5-(2-chlorophenyl)-1,3-oxazole-4-carboxylic acid]: 99%. Take `CC(=O)Nc1cc(-c2nc(-c3ncco3)c(-c3ccccc3Cl)o2)c(C)cn1` [Compound I-10, N-{4-[5′-(2-chlorophenyl)-2,4′-bi-1,3-oxazol-2′-yl]-5-methylpyridin-2-yl}acetamide]: the inhibition at 1.111 µM was determined as 132%. To `CC(=O)Nc1cc(-c2nc(C(=O)NCCC(C)C)c(-c3ccccc3Cl)o2)c(C)cn1` [Compound I-11, 2-(2-acetamido-5-methylpyridin-4-yl)-5-(2-chlorophenyl)-N-(3-methylbutyl)-1,3-oxazole-4-carboxamide] belongs 22%; to `CC(=O)Nc1cc(-c2nc(C(=O)NCCCn3ccnc3)c(-c3ccccc3Cl)o2)c(C)cn1` [Compound I-63, 2-(2-acetamido-5-methylpyridin-4-yl)-5-(2-chlorophenyl)-N-[3-(1H-imidazol-1-yl)propyl]-1,3-oxazole-4-carboxamide], 14%. Regarding `CC(=O)Nc1cc(-c2cc(C(=O)NCCn3ccnc3)c(-c3ccccc3Cl)o2)c(C)cn1` [Compound I-12, 5-(2-acetamido-5-methylpyridin-4-yl)-2-(2-chlorophenyl)-N-[2-(1H-imidazol-1-yl)ethyl]-3-furamide], the inhibition at 1.111 µM was 61%. The same measure for `CC(=O)Nc1cc(-c2nc(C(=O)NCCCCO)c(-c3ccccc3Cl)o2)c(C)cn1` [Compound I-13, 2-(2-acetamido-5-methylpyridin-4-yl)-5-(2-chlorophenyl)-N-(4-hydroxybutyl)-1,3-oxazole-4-carboxamide]: 95%; for `CC(=O)Nc1cc(-c2nc(C(=O)NC3CCC3)c(-c3ccccc3Cl)o2)c(C)cn1` [Compound I-74, 2-(2-acetamido-5-methylpyridin-4-yl)-5-(2-chlorophenyl)-N-cyclobutyl-1,3-oxazole-4-carboxamide]: 28%.

Source of the values: patent US8859768B2, “Heteroaryls and uses thereof” (Millennium Pharmaceuticals, Inc., priority 2010, dated 2014).
